5 molecules from US20230416245A1, “ADENOSINE ANALOGS FOR THE TREATMENT OF DISEASE” (BIOINTERVENE, INC., priority 2020, published 2023) can be followed below.

Test [1] deals with T1, human adenosine A3 receptor (Homo sapiens (Human), UniProt P0DMS8). Description: Intracellular cAMP levels (inhibition of forskolin-stimulated cAMP production). It is filed as cell-based. To be noted: for EC50: CHO cells expressing human adenosine A3 receptors, forskolin 10 μM; for CAMP Efficacy (%): maximal response as percentage of the response produced by 100 nM IB-MECA. The text has this: Example 31: Intracellular cAMP Levels
T1 sequence (P0DMS8 whole entry): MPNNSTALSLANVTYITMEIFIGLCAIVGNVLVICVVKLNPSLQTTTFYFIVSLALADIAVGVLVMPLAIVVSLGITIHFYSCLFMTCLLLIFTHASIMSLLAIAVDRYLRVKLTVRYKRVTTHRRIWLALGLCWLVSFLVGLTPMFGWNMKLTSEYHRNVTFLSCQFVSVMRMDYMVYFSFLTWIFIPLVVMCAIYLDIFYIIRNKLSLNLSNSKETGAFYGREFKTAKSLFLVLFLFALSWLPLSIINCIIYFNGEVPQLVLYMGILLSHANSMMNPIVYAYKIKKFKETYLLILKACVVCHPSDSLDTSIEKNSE
The method followed is that published in Yates L, Clark J H, Martin T J, James S, Broadley K J, Kidd E J. Radioligand binding and functional responses of ligands for human recombinant adenosine A3 receptors. Auton Autacoid Pharmacol. 2006 April; 26(2):191-200.
Materials and Cell Culture: Adenosine deaminase was obtained from Roche (Lewes, UK). Forskolin was obtained from Sigma-Aldrich (Poole, UK). The sources of other materials are provided above in Example 1. CHO-K1 cells stably transfected with the human adenosine A3 receptor were grown in Dulbecco's modified Eagles medium with nutrient mixture F12 containing NaHCO3 and Glutamax. Media was supplemented with 10% fetal calf serum, geneticin (G418; 0.67 mg/mL), hygromycin (500 μg/mL) and adenosine deaminase (1 U/mL). Cells were maintained at 37° C. with 5% CO2 in air.
cAMP Measurements: Intracellular cAMP production was measured directly using a non-acetylation cAMP enzyme immunoassay (Amersham Biosciences, Little Chalfont, UK). Cultured CHO cells expressing human adenosine A3 receptors were allowed to plate overnight in 96-well plates in culture medium containing adenosine deaminase. Twenty-four hours later, they were incubated with adenosine analogues or compounds of the invention (0.1 nM-1 μM) for 5 min at 37° C., followed by incubation with forskolin (10 μM) for 10 min. The cells were then lysed with 200 μL of lysis reagent 1 provided with the kit for 10 min to release intracellular cAMP. Aliquots of the supernatants were then transferred to a 96-well microtitre plate coated with donkey anti-rabbit IgG; 100-μL cAMP standards (12.5-3200 fmol/well) were also added to the microtitre plate; 100 μL of rabbit anti-cAMP antibody was added to all wells and incubated at 2-5° C. for 2 h. The antiserum was made up in lysis reagent 2, which sequesters the key component in lysis reagent 1 and ensures that cAMP is free for subsequent analysis. Then 50 μL of cAMP peroxidase conjugate was added to all wells and left to incubate for 60 min at 2-5° C. to allow competition for the antibody between the un-labelled and horse radish peroxidase (HRP)-labelled cAMP. Wells were then washed with buffer and 150 μL of enzyme substrate containing 3,3′,5,5′-tetramethylbenzidine/hydrogen peroxide in 20% (v/v) dimethylformamide was added to each well and left to incubate for 60 min on a Titramax 100 microtitre plate shaker (Heidolph Instruments, Schwabach, Germany) at room temperature for color development. The reaction was stopped by the addition of 100 μL of 1 M sulfuric acid and the optical density (OD) read at 450 nm on a spectrophotometric MRX microplate reader (Dynex Technologies, Chantilly, VA, USA).
Analyses: Each sample/standard was analyzed in duplicate and the resulting OD values averaged. The percent bound (B/Bo) for each standard and sample was calculated using the following relationship: […]
where B is the specific OD for standard/sample and Bo is the specific OD for the zero standard. A standard curve was generated by plotting % B/Bo as a function of the log fmol cAMP standard per well. The fmol per well value for cAMP in each sample was then read from the graph. The results are expressed as a percent of control agonist response: (measured response/control response)*100 in the presence of the compounds of the invention. Concentration-response curves for inhibition of cAMP production were constructed for all compounds of the invention and reference compounds. The EC50 values (concentration producing a half-maximal response) were determined by non-linear regression analysis of the concentration-response curves generated with mean replicate values using Hill equation curve fitting, according to the equation:
where Y=response, A=left asymptote of the curve, D=right asymptote of the curve, C=compound concentration, and C50=EC50, and nH=slope factor. […]
In general terms: cAMP levels reflect the balance of adenylyl cyclase and phosphodiesterase activity.

Test [2] deals with T1, human adenosine A3 receptor. Description: Adenosine receptor binding assay ([125I]-AB-MECA competition). To be noted: inhibition of 0.15 nM [125I]-AB-MECA binding, membranes of cells expressing human A3 receptor; read-out: hA3 Ki: Ki. From the text: Example 30: Adenosine Receptor Binding Assay
Materials and Reference Compounds: [^125I]-AB-MECA and [^3H]CCPA are both obtained from Amersham Biosciences (Little Chalfont, UK). IB-MECA are obtained from Tocris (Bristol, UK) and N6-cyclopentyl adenosine (CPA) is obtained from Sigma-Alrich (Poole, UK). Cell culture media, G418 and hygromycin are obtained from Invitrogen (Paisley, UK). Fetal calf serum is obtained from Perbio Science (Cheshire, UK). All other reagents are obtained from Fisher Chemicals (Loughborough, UK).
The method followed is that of Yates L, Clark J H, Martin T J, James S, Broadley K J, Kidd E J. Radioligand binding and functional responses of ligands for human recombinant adenosine A3 receptors. Auton Autacoid Pharmacol. 2006; 26(2):191-200. Cells stably transfected with the human adenosine A3 or A1 receptor are grown in Dulbecco's modified Eagles medium with nutrient mixture F12 containing NaHCO3 and Glutamax. Media is supplemented with 10% fetal calf serum, geneticin (G418; 0.67 mg/mL), hygromycin (500 μg/mL) and adenosine deaminase (1 U/mL). Cells are maintained at 37° C. with 5% CO2 in air. Cells are harvested and homogenized in ice-cold Tris buffer [50 mM Tris, 150 mM NaCl, 1 mM ethylenediaminetetraacetic acid (EDTA), pH 7.4] supplemented with the peptidase inhibitors, 4-(2-aminoethyl)benzenesulfonylfluoride (1 mM) and bacitracin (0.1 mg/mL), using a Polytron homogenizer (3×10 s bursts). The homogenate was spun for 10 min (4° C.) at 500 g. The supernatant is retained and the pellet is re-suspended in the buffer, homogenized and spun as above. The combined supernatants are centrifuged for 15 min (4° C.) at 48,000 g. The resultant pellet is re-suspended in the buffer and centrifuged for a second time at 48,000 g. The membrane pellet is then suspended in Tris buffer containing no peptidase inhibitors or adenosine deaminase and stored at −80° C. at a protein concentration of 1 mg/mL.
Binding Assays: Radioligand-binding assays were performed using the adenosine A3 receptor agonist [^125I]-AB-MECA and the A1 receptor agonist [^3H]CCPA. Binding assays were conducted in a total volume of 100 μL containing a 50 mM Tris, pH 7.4 buffer with or without 10 mM MgCl2, 20 μg membranes and either 0.15 nM [^125I]-AB-MECA (for the A3 receptor) or 1 nM [^3H]CCPA (for the A1 receptor). Assays were conducted at room temperature for 60 min (A1 receptor) or 120 min (A3 receptor) and terminated by the addition of 2 ml of ice-cold wash buffer (50 mM Tris, pH 7.4 with or without 10 mM MgCl2) and rapid filtration over 0.03% polyethylenimine-treated Whatman GF/C filters using a Brandel cell harvester (Semat International Ltd., St Albans, UK). Filters were then washed three times with 2 ml of ice-cold buffer. The filter-bound radioactivity were counted using a Compugamma counter (LKB Wallac, Turku, Finland). Competition experiments were performed to investigate the ability of reference compounds and embodiments of the invention to inhibit [^125I]-AB-MECA binding. Non-specific binding were determined using the respective compound at its highest concentration.
Data Analysis: The Kd and Bmax values for binding data were calculated based upon the molar amounts of bound and free [^125I]-AB-MECA. […] IC50 and Ki values and Hill slopes for inhibition of the radioligand binding by the compounds of the invention were calculated from the ligand competition curves using the Excel spreadsheet and the Kd value calculated for either [^125I]-AB-MECA or [^3H]CCPA. The results were expressed as a percent of control specific binding and as a percent inhibition of control specific binding obtained in the presence of the compounds of the invention. The IC50 values (concentration causing a half-maximal inhibition of control specific binding) and Hill coefficients (nH) were determined by non-linear regression analysis of the competition curves generated with mean replicate values using Hill equation curve fitting: […]

`O[C@@H]1[C@H](O)[C@@H]2C[C@@H]2[C@H]1n1cnc2c(NCc3cc(Cl)ccc3Cl)cc(Cl)nc21` [Compound 68, (1R,2R,3S,4R,5S)-4-(5-chloro-7-((2,5-dichlorobenzyl)amino)-3H-imidazo[4,5-b]pyridin-3-yl)bicyclo[3.1.0]hexane-2,3-dio]: in test [1], it took 1.33 nM to reach a half-maximal effect (EC50) and the “CAMP Efficacy (%)” value was determined as 38.22%. The Ki (as a rule, a dissociation constant, usually derived from enzyme kinetics or from competition with a known ligand) in test [2] was determined as 4.75 nM.
The like results for `CNC(=O)[C@@]12C[C@@H]1[C@@H](n1cnc3c(NCc4cc(Cl)ccc4OCc4cc(C)no4)cc(Cl)nc31)[C@H](O)[C@@H]2O` [Compound 62, (1S,2R,3S,4R,5S)-4-(5-chloro-7-((5-chloro-2-((3-methylisoxazol-5-yl)methoxy)benzyl)amino)-3H-imidazo[4,5-b]pyridin-3-yl)-2,3-dihydroxy-N-methylbicyclo[3.1.0]hexane-1-carboxamide] were, in that order, 0.31 nM, 103.26% and 0.33 nM.
The like results for `CNC(=O)C12C[C@@H]1[C@@H](n1cnc3c(NCC4CC4)cc(Cl)nc31)[C@H](O)[C@@H]2O` (stereo in doubt) [Compound 63, (1S,2R,3S,4R,5S)-4-(5-chloro-7-((cyclopropylmethyl)amino)-3H-imidazo[4,5-b]pyridin-3-yl)-2,3-dihydroxy-N-methylbicyclo[3.1.0]hexane-1-carboxamide] were, in that order, 0.22 nM, 105.1% and 0.72 nM.
The matching figures for `CCNc1c(C#N)c(Cl)nc2c1ncn2[C@H]1[C@H](O)[C@H](O)[C@@H]2C[C@@H]21` [Compound 93, 5-chloro-3-((1S,2R,3S,4R,5R)-3,4-dihydroxybicyclo[3.1.0]hexan-2-yl)-7-(ethylamino)-3H-imidazo[4,5-b]pyridine-6-carbonitrile]: 15.2 nM, 52% and 2.59 nM.
`CCNc1cc(C#N)nc2c1ncn2[C@H]1[C@H](O)[C@H](O)[C@]2(C(=O)NC)C[C@H]12` [Compound 70, (1S,2R,3S,4R,5S)-4-(5-cyano-7-(ethylamino)-3H-imidazo[4,5-b]pyridin-3-yl)-2,3-dihydroxy-N-methylbicyclo[3.1.0]hexane-1-carboxamide]: in test [1], a half-maximal response (EC50) required 0.1 nM and the “CAMP Efficacy (%)” value worked out at 104.76%. The Ki in test [2] stood at 0.133 nM.
